Like-named read-outs stand apart in the source and are kept apart here.
Assays:
[1] = system: maximal electroshock seizures; assay: Maximum Electroshock Seizure (MES) test, mice; assay type: in vivo
How it was run: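 Mice received compound in methylcellulose i.p. or p.o. at 30, 100 and 300 mg/kg, with some tests at 10 and 3 mg/kg. At 0.5 or 4 h, after tetracaine eye-drops, current was delivered through corneal electrodes (60 Hz, 0.2 s, 50 mA). Groups were one mouse at 30 and 300 mg/kg and three at 100 mg/kg.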

[2] = system: maximal electroshock seizures; assay: Maximum Electroshock Seizure (MES) test, rats; assay type: in vivo
Experimental: In order to define anticonvulsant activity, screening tests were performed, using animal models of seizures. […] The tests were based on administration of a compound to an animal and after certain time inducing state similar to epilepsy attack in human. Each substance (after dissolving in methylcellulose) was normally tested in doses 30, 100, and 300 mg/kg body weight (b.w.) (mice) or in 30 and 50 mg/kg b.w. (rats) in two possible routes of administration: intraperitoneal (i.p.) or oral (p.o.). […] […] (mice) the tests were also performed in doses 10 and 3 mg/kg b.w.
Maximum Electroshock Seizure (MES) test is an electric test, verifying activity towards generalized tonic-clonic seizures (grand mal epilepsy). […] Its procedure consists in administration to an animal a mentioned dose, […] (after anesthetic eye-drops: 0.5% tetracaine hydrochloride in 0.9% NaCl) and turning on electric current (60 Hz, 0.2 s, 50 mA (mice) or 150 mA (rats)). […]

[3] = system: neurotoxicity (rotarod); assay: Neurotoxicity test (TOX), rotarod, mice; assay type: in vivo; settings: mice
[4] = system: 6 Hz focal seizures (limbic system); assay: 6 Hz test, mice; assay type: in vivo; settings: for ED50: Mus musculus, ip, 0.25 h
Experimental: (§1) For some compounds, a test for proconvulsant activity was performed (TTE test), as well as a test on activity in focal seizures (related with limbic system, 6 Hz test, hippocampal kindling). […] A test on inhibiting seizures induced by sound (Frings mice) was performed for compounds 12 and 26-28. Electrophysiology tests also have been performed, for seizures induced by bicuculline, picrotoxin, and NMDA. Prevention of (pilocarpine induced) status epilepticus has been noticed.

[5] = system: seizures induced by sound; assay: Sound-induced seizures, Frings mice; assay type: in vivo
Experimental: as §1

[6] = system: hippocampal kindling seizures; assay: Electric hippocampal kindling, rats; assay type: in vivo
Experimental: as §1

[7] = system: seizures induced by bicuculline; assay: Bicuculline (BIC) induced seizures; assay type: in vivo
Experimental: as §1

[8] = system: seizures induced by picrotoxin; assay: Picrotoxin (PIC) induced seizures; assay type: in vivo
Experimental: as §1

[9] = system: metrazol seizure threshold; assay: Metrazol test, time to first twitch and first clonus; assay type: in vivo; settings: for average time until the first twitch: control 30.07 (±1.23) min.; for average time from administration until the first clonus: control 34.38 (±0.94) min.
Experimental: In the MES test it inhibits seizures by inhibiting post-synaptic excitatory current. […] In the metrazol test average time until the first twitch was 27.3±0.2 min. for the dose 5 mg/kg b.w. and 27.6 (±0.3) min. for the dose 30 mg/kg b.w., comparing to the control 30.07 (±1.23) min. Average time from administration until the first clonus was 33.6 (±1.23) min. for the dose 5 mg/kg b.w. and 32.70 (±1.28) for the dose 30 mg/kg b.w., comparing to the control 34.38 (±0.94) min.

[10] = system: formalin-induced pain (acute/neuropathic and inflammatory phase); assay: Formalin test, mice; assay type: in vivo
Experimental: The test was performed with use of formaldehyde as a substance causing pain (neuropathic and inflammatory afterwards) in mice, which were injected formalin into a hind limb.
During the first 10 min. after administration the mouse is licking the hind limb (acute phase), afterwards there is a short break in behavior change, and then the mouse licks its limb again for another 20-30 min. (inflammatory phase) (FIG. 3 for 12 and FIG. 4 for 26). The acute phase represents direct affection on the peripheral nerve and the inflammatory phase is related with secretion of inflammation mediators from the damaged tissue and nerves. The described model tests effectiveness of a substance to inhibit acute and chronic excessive neuronal discharges in response to peripheral nerves activation.

[11] = system: voltage-gated sodium channels; assay: Electrophysiology, voltage-gated sodium channels; assay type: biochemical
[12] = system: LTG-resistant amygdala seizures; assay: Lamotrigine-resistant amygdala kindling, rats; assay type: in vivo; settings: t=0.25 h, i.p.
[13] = system: pilocarpine induced status epilepticus; assay: Status epilepticus prevention (pilocarpine), rats; assay type: in vivo, Sprague Dawley albino rat; settings: i.p.
Experimental: Status epilepticus prevention—an animal (Sprague Dawley albino rat male) is given a dose of tested substance. After 0, 0.25, 0.5, 1, 2, and 4 h pilocarpine is administered. The seizures induced are described by Racine's score. Compounds 27 and 28 were administered i.p. in doses 25 and 45 mg/kg b.w. respectively. […] Average body weight loss is measured 24 h after administration.

[14] = dose 100 mg/kg b.w., time 0.5 h
[15] = dose 300 mg/kg b.w., time 0.5 h
[16] = mice, dose 30 mg/kg b.w., time 0.5 h
[17] = mice, dose 100 mg/kg b.w., time 0.5 h

SMILES: Cc1cccc(C)c1OCCN[C@H](C)CO [Compound 12, R-(−)-2N-[(2,6-dimethylphenoxy)ethyl]amino-1-propanol]
- responders at 10 mg/kg ([1]; Mus musculus, mice, dose 10 mg/kg b.w., time 0.5 h, read-out: MES, No. of protected animals/No. of used animals (converted)): 25%
- responders at 30 mg/kg ([1]; Mus musculus, mice, dose 30 mg/kg b.w., time 0.5 h, read-out: MES, No. of protected animals/No. of used animals): 100%
- responders at 100 mg/kg ([1]; Mus musculus, mice, dose 100 mg/kg b.w., time 0.5 h, read-out: MES, No. of protected animals/No. of used animals (converted)): 100%
- responders at 100 mg/kg ([1]; Mus musculus, mice, dose 100 mg/kg b.w., time 4 h, read-out: MES, No. of protected animals/No. of used animals (converted)): 50%
- ED50 (MES, female mice, i.p., 0.25 h) ([1]; female mice, i.p., 0.25 h): 22.28 mg/kg b.w.
- activity in MES, mice ([1]; mice): active
- ED50 (MES, mice, i.p., 0.25 h) ([1]; mice, i.p., 0.25 h): 5.34 mg/kg b.w.
- ED50 (MES, mice, p.o., 0.25 h) ([1]; mice, p.o., 0.25 h): 51.19 mg/kg b.w.
- activity in MES, rats [2]: active
- ED50 (MES, rats, i.p., 0.25 h) [2]: 7.43 mg/kg b.w.
- ED50 (MES, rats, p.o., 0.25 h) [2]: 28.60 mg/kg b.w.
- TOX, No. of animals exhibiting motor impairment/no. of used animals [3, 14]: 8/8
- TOX, No. of animals exhibiting motor impairment/no. of used animals ([3]; dose 100 mg/kg b.w., time 4 h, 100 mg/kg): 1/3
- TOX, No. of animals exhibiting motor impairment/no. of used animals [3, 15]: 4/4
- ED50 ([4]; read-out: ED50 (6 Hz, female mice, i.p., 22 mA, 0.25 h)): 7.06 mg/kg
- ED50 ([4]; read-out: ED50 (6 Hz, mice, i.p., 22 mA, 0.25 h)): 43.8 mg/kg
- ED50 (6 Hz, female mice, i.p., 44 mA, 0.25 h) ([4]; female mice, i.p., 44 mA): 41.3 mg/kg b.w.
- ED50 (6 Hz, mice, i.p., 44 mA, 0.25 h) ([4]; mice, i.p., 44 mA): 30.02 mg/kg b.w.
- ED50 (Frings mice, 0.25 h) ([5]; Frings mice): 5.39 mg/kg b.w.
- activity in electric kindling (rats, hippocampus) ([6]; 0.25 h after administration of 60 mg/kg b.w.): reveals activity
- ED50 (kindling, rats, hippocampus, 0.25 h) [6]: > 30 mg/kg b.w.
- ED50 (BIC, 0.25 h) [7]: > 75 mg/kg b.w.
- ED50 (PIC, 0.25 h) [8]: > 75 mg/kg b.w.
- average time until the first twitch ([9]; dose 5 mg/kg b.w.): 27.3 ± 0.2 min
- average time from administration until the first clonus ([9]; dose 5 mg/kg b.w.): 33.6 (±1.23) min.
- average time until the first twitch ([9]; dose 30 mg/kg b.w.): 27.6 (±0.3) min.
- average time from administration until the first clonus ([9]; dose 30 mg/kg b.w.): 32.70 (±1.28)
- formalin test result (FIG. 3) ([10]; mice): inhibiting neuropathic pain (first 10 min. phase) and inflammatory pain (next 30 min. phase)
- effect on voltage-gated sodium channels [11]: blocks voltage-gated sodium channels dependently on the voltage

SMILES: CCC(CO)NCCOc1c(C)cccc1Cl (stereo not shown) [Compound 26, R,S-2N-[(2-chlor-6-methylphenoxy)ethyl]amino-1-butanol]
- MES, No. of protected animals/No. of used animals ([1]; mice, dose 10 mg/kg b.w., time 0.5 h): 2/4
- MES, No. of protected animals/No. of used animals [1, 16]: 1/1
- MES, No. of protected animals/No. of used animals [1, 17]: 1/1
- ED50 (MES, mice, i.p., 0.25 h) ([1]; mice, i.p., 0.25 h): 21.44 mg/kg b.w.
- ED50 (MES, rats, i.p., 0.25 h) [2]: 7.3 mg/kg b.w.
- ED50 (MES, rats, p.o., 0.25 h) [2]: 67.69 mg/kg b.w.
- TOX, No. of animals exhibiting motor impairment/no. of used animals [3, 14]: 8/8
- TOX, No. of animals exhibiting motor impairment/no. of used animals [3, 15]: 4/4
- ED50 (sound induced seizures, mice, 0.25 h) ([5]; mice): 6.05 mg/kg b.w.
- ED50 (BIC, 0.25 h) [7]: > 70 mg/kg b.w.
- ED50 (PIC, 0.25 h) [8]: > 70 mg/kg b.w.
- neuropathic pain inhibition (formalin test) ([10]; 21 mg/kg b.w.): 36%
- acute phase of the formalin test ([10]; mice, i.p., 21 mg/kg b.w., first ca. 10 min. after formalin, p<0.01): 64 % of control
- inflammatory phase of the formalin test ([10]; mice, i.p., 21 mg/kg b.w., not statistically significant): 72 % of control
- effective dose (LTG-resistant amygdala seizures) [12]: 15 mg/kg b.w.

SMILES: CC[C@@H](CO)NCCOc1c(C)cccc1Cl [Compound 28, S-(+)-2N-[(2-chlor-6-methylphenoxy)ethyl]amino-1-butanol]
- MES, No. of protected animals/No. of used animals [1, 16]: 1/1
- MES, No. of protected animals/No. of used animals [1, 17]: 1/1
- TOX, No. of animals exhibiting motor impairment/no. of used animals [3, 14]: 8/8
- TOX, No. of animals exhibiting motor impairment/no. of used animals [3, 15]: 4/4
- ED50 (kindling, rats, hippocampus, 0.25 h) [6]: 15.81 mg/kg b.w.
- Average weight loss ± S.E.M. ([13]; body weight loss 24 h after administration, 25 (27) or 45 (28) mg/kg b.w.): 3.8 ± 5.7
- protection in status epilepticus prevention ([13]; 25 (27) and 45 (28) mg/kg b.w.): 3 rats out of 8
- Protection ([13]; rats protected/tested, time 0 h, dose 25 (27) or 45 (28) mg/kg b.w.): 3/8

Reference: patent US8633251B2, “Derivatives of aminoalkanols, method of obtaining of aminoalkanols and their use” (Uniwersytet Jagiellonski, priority 2008, dated 2014)
